Data published in patent publication US20160039802A1, “3-PYRIMIDIN-4-YL-OXAZOLIDIN-2-ONES AS INHIBITORS OF MUTANT IDH” (NOVARTIS AG, priority 2013, published 2016).

What was measured:
IDH1 (R132H) mutant = biological target: T1, IDH1 (R132H) mutant (Homo sapiens, UniProt O75874, R132H); experiment: Fluorescence biochemical assay (NADPH oxidation); conditions: mIDH R132H 10 nM, 10 μM NADPH, 100 μM α-KG; range where run multiple times
T1 construct: His6 with PreScission site (N, cleaved yes); made in house; host or cells: E. coli Rosetta 2(DE3)
Experimental: The IDH1 (R132H) mutant catalyzes the reduced form of NADP+ (NADPH) and α-ketoglutarate (α-KG) to form nicotinamide adenine dinucleotide phosphate (NADP+) and R(−)-2-hydroxyglutarate (2HG). […] Reactions were monitored using the Perkin-Elmer Envision, Model 2101. […] The final reaction mixture contained 2.5% DMSO and test compounds with concentrations ranging 0.0000008-25 μM. The IDH1 (R132H) enzyme was used at a final concentration of 10 nM. Curve fitting for dose response […] determinations was done in the Helios module of the software package DAVID. The 4-parameter logistic model was used: y=min+((max−min)/1+(x/IC50)^shape)

Mutant IDH1 R132H = biological target: T2, Mutant IDH1 R132H (Homo sapiens, UniProt O75874, R132H); experiment: Mutant IDH1 biochemical assay: LC-MS detection of 2-HG; conditions: mIDH R132H […], 5 uM NADPH, 100 uM alpha-KG, 45 minutes incubation; range where run multiple times; further: mIDH R132H 0.25 nM, 5 µM NADPH
T2 construct: His6 with PreScission site (N, cleaved yes); made in house; host or cells: E. coli Rosetta 2(DE3)
Source text: Mutant IDH1 biochemical Sssay: LC-MS Detection of 2-HG.

T1 sequence (O75874 whole entry R132H): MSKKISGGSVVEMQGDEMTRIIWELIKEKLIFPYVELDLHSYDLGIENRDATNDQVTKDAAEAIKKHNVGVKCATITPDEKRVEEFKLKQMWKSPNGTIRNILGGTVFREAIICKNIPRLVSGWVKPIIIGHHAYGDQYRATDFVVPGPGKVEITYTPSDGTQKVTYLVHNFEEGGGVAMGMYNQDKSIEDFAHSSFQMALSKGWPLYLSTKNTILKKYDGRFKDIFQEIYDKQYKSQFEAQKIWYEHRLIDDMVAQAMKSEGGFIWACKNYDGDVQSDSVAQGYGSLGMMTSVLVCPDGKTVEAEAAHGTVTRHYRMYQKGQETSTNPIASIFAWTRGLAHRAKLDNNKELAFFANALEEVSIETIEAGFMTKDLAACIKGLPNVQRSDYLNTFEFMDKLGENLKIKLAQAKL
T2 sequence (O75874 whole entry R132H): as above

Compound	IC50 (IDH1 (R132H) mutant)	IC50 (Mutant IDH1 R132H)
C[C@H](Nc1nccc(N2C(=O)OC[C@]2(C)C2CC2)n1)c1ccc(CN2CCC(O)(C(F)(F)F)CC2)cc1F [Example 35, (S)-4-cyclopropyl-3-(2-(((S)-1-(2-fluoro-4-((4-hydroxy-4-(trifluoromethyl)piperidin-1-yl)methyl)phenyl)ethyl)amino)pyrimidin-4-yl)-4-methyloxazolidin-2-one]	0.0159 µM	0.0109 µM
CNC1CCN(Cc2ccc([C@H](C)Nc3nccc(N4C(=O)OC[C@]4(C)C4CC4)n3)cc2F)CC1 [Example 40, (S)-4-cyclopropyl-3-(2-(((S)-1-(3-fluoro-4-((4-(methylamino)piperidin-1-yl)methyl)phenyl)ethyl)amino)pyrimidin-4-yl)-4-methyloxazolidin-2-one]	0.105 to 0.111 µM	0.117 µM
C[C@H](Nc1nccc(N2C(=O)OC[C@]2(C)C2CC2)n1)c1ccc(CN2CCC(N)CC2)c(F)c1 [Example 41, (S)-3-(2-(((S)-1-(4-((4-aminopiperidin-1-yl)methyl)-3-fluorophenyl)ethyl)amino)pyrimidin-4-yl)-4-cyclopropyl-4-methyloxazolidin-2-one]	0.194 to 0.473 µM	0.376 µM
